The assay has as its system BDF1 mice, L1210 leukemia sc, survival T/C. In words: NCI In Vivo Anticancer Drug Screen. Data for tumor model L1210 Leukemia (subcutaneous) in B6D2F1 (BDF1) mice. The conditions noted are these: endpoint: median survival time, higher = longer survival. As for the experimental part:
The antitumor activity of compounds was measured in mice bearing transplantable tumors. Survival or tumor size were measured and the results are expressed as the measurement made in the treated group (T) divided by the measurement made in the vehicle treated control group (C). The tumor model used in this assay is L1210 Leukemia (subcutaneous) in B6D2F1 (BDF1) mice

The structures appear in SMILES notation. Where “and” joins values, the source holds several entries; their conditions need not be identical. Identical values can stand only once. Toxic doses and inconclusive results are not listed.

As for `COC(=O)Nc1nc2ccc(C(=O)c3cccs3)cc2[nH]1`, the T/C is, setting by setting: (dose: 50.0 mg/kg/injection, schedule: Q04DX003 (ip), vehicle: other) 118 % of control; (dose: 70.0 mg/kg/injection, schedule: Q04DX003 (iv), vehicle: other) 161 % of control; (dose: 100.0 mg/kg/injection, schedule: Q04DX003 (iv), vehicle: other) 151 % of control.
`CSc1ncnc2c1ncn2C1OC(CO)C(O)C1O` (stereo not given): the T/C is, setting by setting: (dose: 5.0 mg/kg/injection, schedule: Q#A X Z (sc), vehicle: water) 100 % of control; (dose: 8.4 mg/kg/injection, schedule: Q#A X Z (sc), vehicle: water) 100 % of control; (dose: 14.0 mg/kg/injection, schedule: Q01DX Z (sc), vehicle: water) 100 % of control; (dose: 14.0 mg/kg/injection, schedule: Q#A X Z (sc), vehicle: water) 105 % of control; (dose: 23.0 mg/kg/injection, schedule: Q01DX Z (sc), vehicle: water) 100 % of control and 105 % of control; (dose: 23.0 mg/kg/injection, schedule: Q02DX Z (sc), vehicle: water) 100 % of control. The T/C was 111 % of control (dose: 23.0 mg/kg/injection, schedule: Q#A X Z (sc), vehicle: water); 111 % of control (dose: 39.0 mg/kg/injection, schedule: Q01DX Z (sc), vehicle: water); 105 % of control (dose: 39.0 mg/kg/injection, schedule: Q02DX Z (sc), vehicle: water); 111 % of control (dose: 39.0 mg/kg/injection, schedule: Q## X Z (sc), vehicle: water); 111 % of control (dose: 39.0 mg/kg/injection, schedule: Q#A X Z (sc), vehicle: water); 100 % of control (dose: 65.0 mg/kg/injection, schedule: Q01DX001 (sc), vehicle: water). The T/C is, setting by setting: (dose: 65.0 mg/kg/injection, schedule: Q01DX Z (sc), vehicle: water) 111 % of control; (dose: 65.0 mg/kg/injection, schedule: Q02DX Z (sc), vehicle: water) 100 % of control; (dose: 65.0 mg/kg/injection, schedule: Q## X Z (sc), vehicle: water) 105 % of control; (dose: 108.0 mg/kg/injection, schedule: Q01DX001 (sc), vehicle: water) 111 % of control; (dose: 108.0 mg/kg/injection, schedule: Q01DX Z (sc), vehicle: water) 122 % of control; (dose: 108.0 mg/kg/injection, schedule: Q02DX Z (sc), vehicle: water) 111 % of control. The T/C reads like this: (dose: 108.0 mg/kg/injection, schedule: Q## X Z (sc), vehicle: water) 111 % of control; (dose: 180.0 mg/kg/injection, schedule: Q01DX001 (sc), vehicle: water) 122 % of control; (dose: 180.0 mg/kg/injection, schedule: Q02DX Z (sc), vehicle: water) 105 % of control; (dose: 180.0 mg/kg/injection, schedule: Q## X Z (sc), vehicle: water) 116 % of control; (dose: 300.0 mg/kg/injection, schedule: Q01DX001 (sc), vehicle: water) 122 % of control; (dose: 300.0 mg/kg/injection, schedule: Q## X Z (sc), vehicle: water) 122 % of control.
As to `Cc1c(CNc2ccc(C(=O)NC(CC(=O)O)C(=O)O)cc2)ccc2nc(N)nc(N)c12` (stereo not given), the T/C reads like this: (dose: 0.05 mg/kg/injection, schedule: Q01DX017 (sc), vehicle: sodium bicarbonate) 116 % of control; (dose: 1.8 mg/kg/injection, schedule: Q04DX005 (sc), vehicle: sodium bicarbonate) 229 % of control; (dose: 3.0 mg/kg/injection, schedule: Q04DX005 (sc), vehicle: sodium bicarbonate) 233 % of control; (dose: 5.0 mg/kg/injection, schedule: Q04DX005 (sc), vehicle: sodium bicarbonate) 170 % of control; (dose: 8.4 mg/kg/injection, schedule: Q04DX005 (sc), vehicle: sodium bicarbonate) 150 % of control; (dose: 14.0 mg/kg/injection, schedule: Q01DX017 (sc), vehicle: sodium bicarbonate) 95 % of control. Moreover, the T/C is, setting by setting: (dose: 14.0 mg/kg/injection, schedule: Q04DX005 (sc), vehicle: sodium bicarbonate) 116 % of control; (dose: 23.0 mg/kg/injection, schedule: Q01DX017 (sc), vehicle: sodium bicarbonate) 87 % of control.
As for `CCCCCCOP(=O)(N1CC1)N1CC1`, the T/C runs as follows: (dose: 0.65 mg/kg/injection, schedule: Q01DX Z (sc), vehicle: saline) 100 % of control and 110 % of control; (dose: 1.08 mg/kg/injection, schedule: Q01DX Z (sc), vehicle: saline) 104 % of control and 110 % of control (2×); (dose: 23.0 mg/kg/injection, schedule: Q01DX001 (sc), vehicle: saline) 150 % of control; (dose: 23.0 mg/kg/injection, schedule: Q## X Z (sc), vehicle: saline) 170 % of control; (dose: 39.0 mg/kg/injection, schedule: Q01DX001 (sc), vehicle: saline) 150 % of control; (dose: 39.0 mg/kg/injection, schedule: Q## X Z (sc), vehicle: saline) 220 % of control. The T/C (dose: 65.0 mg/kg/injection, schedule: Q01DX001 (sc), vehicle: saline) is 170 % of control; the T/C (dose: 65.0 mg/kg/injection, schedule: Q## X Z (sc), vehicle: saline) was 160 % of control; the T/C (dose: 108.0 mg/kg/injection, schedule: Q01DX001 (sc), vehicle: saline) is 160 % of control; the T/C (dose: 108.0 mg/kg/injection, schedule: Q## X Z (sc), vehicle: saline) is 150 % of control; the T/C (dose: 180.0 mg/kg/injection, schedule: Q01DX001 (sc), vehicle: saline) is 150 % of control.
On to `Nc1nc(=S)c2ncn(C3OC(COC(=O)c4ccc(Cl)cc4)C(OC(=O)c4ccc(Cl)cc4)C3OC(=O)c3ccc(Cl)cc3)c2[nH]1` (stereo not given), for which the T/C by setting is: (dose: 12.5 mg/kg/injection, schedule: Q01DX Z (sc), vehicle: carboxymethylcellulose (CMC)) 100 % of control; (dose: 25.0 mg/kg/injection, schedule: Q01DX Z (sc), vehicle: carboxymethylcellulose (CMC)) 106 % of control; (dose: 50.0 mg/kg/injection, schedule: Q01DX Z (sc), vehicle: carboxymethylcellulose (CMC)) 100 % of control; (dose: 65.0 mg/kg/injection, schedule: Q01DX Z (sc), vehicle: carboxymethylcellulose (CMC)) 100 % of control; (dose: 100.0 mg/kg/injection, schedule: Q01DX Z (sc), vehicle: carboxymethylcellulose (CMC)) 112 % of control; (dose: 108.0 mg/kg/injection, schedule: Q01DX Z (sc), vehicle: carboxymethylcellulose (CMC)) 122 % of control. In addition, the T/C (dose: 200.0 mg/kg/injection, schedule: Q01DX Z (sc), vehicle: carboxymethylcellulose (CMC)) was 150 % of control.
Turning to `CCC(=O)NC1=C(N2CC2)C(=O)C(NC(=O)CC)=C(N2CC2)C1=O`, the T/C is 110 % of control (dose: 1.08 mg/kg/injection, schedule: Q01DX Z (sc), vehicle: methylcellulose (MC)) and 110 % of control (dose: 1.8 mg/kg/injection, schedule: Q01DX Z (sc), vehicle: methylcellulose (MC)).

(Values after PubChem BioAssay AID250 (DTP/NCI, 2004).)
